Assay results taken from patent publication US12691070B2, “Cationic lipids and preparation method thereof” (RiboX Therapeutics HK Limited, priority 2023, dated 2026).

Experiments:
Hep G2 cells [1] = assay: In vitro expression of firefly-luciferase, Hep G2; format: cell-based; conditions: cirRNA (SEQ ID NO: 1) LNPs; firefly-luciferase luminescence; Hep G2 cells
Method: (§1) RAW 264.7 and Hep G2 cells were transfected with 100 ng/mL of RNA-LNPs encoding for firefly-luciferase. At 72 hours post transfection, the cells were washed and lysed. The luciferase expression was determined in the cell lysates with the luciferase assay reagent kit (Promega), according to the kit protocol, luciferase activity was measured by a luminometer.

RAW 264.7 cells [2] = assay: In vitro toxicity (CellTiter-Glo cell viability), RAW 264.7; format: cell-based; conditions: cirRNA (SEQ ID NO: 1) LNPs; RAW 264.7 cells;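 further: percent of untreated cells luminescence signal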
Method: (§2) RAW 264.7 and Hep G2 cells were transfected with 1 μg/mL RNA-LNPs. At 72 hours post transfection, cell viability was determined with the CellTiter-Glo® reagent kit, according to the kit protocol, measured by a luminometer.
(§3) The cell viability was calculated according to the following formula: […]

[3] = RNA encapsulation efficacy by Quant-IT Ribogreen kit; format: physicochemical; conditions: LNP with cirRNA (SEQ ID NO: 1)
Method: (§4) Ionizable lipid, DSPC, Cholesterol and DMG-PEG 2000 were mixed at a molar ratio of 50:10:38.5:1.5 in absolute ethanol. Circular RNA and linear mRNA payloads were suspended in 25 mM Acetate Buffer (pH 4.5). To form LNPs, three volumes of luciferase encoding RNA, in the form of cirRNA (SEQ ID NO:1) and mRNA (SEQ ID NO:2) respectively, were mixed with one volume of lipids in ethanol solution by microfluidic mixing with the Nanoassemblr Ignite (Precision Nanosystems) at a flow rate of 12 ml/min. The molar ratio of ionizable lipid to ribonucleotide was 15 or 6. The final lipid concentration in solution ranged from 1.5 mM to 6 mM. After encapsulation, the particles were dialyzed twice against PBS.
(§5) The LNP size and polydispersity index (PDI), determined by dynamic light scattering (DLS), and zeta potential were measured by a Zetasizer machine (Malvern). RNA concentration and encapsulation efficacy were analyzed by the Quant-IT Ribogreen kit by calculating the percentage encapsulation at 100%−(RNA-LNPs/RNA-LNPs with Triton X-100).

Hep G2 cells [4] = assay: In vitro toxicity (CellTiter-Glo cell viability), Hep G2; format: cell-based; conditions: cirRNA (SEQ ID NO: 1) LNPs; Hep G2 cells;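 further: percent of untreated cells luminescence signal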
Method: as §2, §3

[5] = LNP zeta potential (Zetasizer); format: physicochemical; conditions: LNP with cirRNA (SEQ ID NO: 1)
Method: as §4, §5

[6] = LNP size and polydispersity index (PDI) by dynamic light scattering; format: physicochemical; conditions: LNP with cirRNA (SEQ ID NO: 1); for Size: in nm (unit assumed)
Method: as §4, §5

RAW 264.7 cells [7] = assay: In vitro expression of firefly-luciferase, RAW 264.7; format: cell-based; conditions: cirRNA (SEQ ID NO: 1) LNPs; firefly-luciferase luminescence; RAW 264.7 cells
Method: as §1

BALB/C mice = assay: In vivo expression, whole-body luminescence (IVIS); conditions: cirRNA (SEQ ID NO: 1) LNPs, BALB/C mice
Method: 6-8 week old, female BALB/C mice were injected with 0.05 mg*kg-1 of RNA-LNPs encoding for firefly-luciferase by intravenous injection. At 6 hours post injection, animals were intraperitoneally injected with 15 mg/ml of Luciferin substrate and whole-body luminescence was determined by a bioluminescent in vivo imaging system (IVIS).

| SMILES | In vitro Expression HepG2 (Hep G2 cells [1]) | In vitro Viability RAW (RAW 264.7 cells [2]) | Encapsulation Efficiency % [3] | In vitro Viability HepG2 (Hep G2 cells [4]) | Zeta (mV) [5] | PDI [6] | Size [6] | In vitro Expression RAW (RAW 264.7 cells [7]) | In vivo Expression (Whole Body) (BALB/C mice) |
| --- | --- | --- | --- | --- | --- | --- | --- | --- | --- |
| CCCCC/C=C\CCOC(=O)CCCCCN(CCCCCCCCOC(=O)C(CCCCCC)CCCCCCCC)CCOC(=O)NCCN1CCCC1 (stereo not shown) [Lipid 191] | 4.43E+04 | 4% | 91% | 92% | 12.32 mV | 0.2327 | 79.79 | 1.22E+03 | 1.02E+07 |
| CCCCC/C=C\C/C=C\CCCCCCCCN(CCCCCCCC(=O)OC(CCCCCCCC)CCCCCCCC)CCCOC(=O)NCCN1CCCC1 [Lipid 277] | 1.17E+07 | 121% | 92% | 89% | −0.6853 mV | 0.2188 | 76.75 | 8.13E+06 | 7.29E+07 |
| CCCCCCCCC(CCCCCC)C(=O)OCCCCCCCCN(CCCCCCCCOC(=O)C(CCCCCC)CCCCCCCC)CCCOC(=O)NCCCN(C)C (stereo not shown) [Lipid 378] | 3.39E+06 | 75% | 93% | 26% | 6.729 mV | 0.2637 | 130.6 | 6.58E+05 | 8.79E+06 |
| CCCCCCCCCC(=O)OCCCCCCCN(CCCCCCCCOC(=O)C(CCCCCC)CCCCCCCC)CCOC(=O)NCCCN1CCCCC1 (stereo not shown) [Lipid 358] | 1.88E+05 | 83% | 87% | 121% | 1.109 mV | 0.1606 | 81.33 | 9.81E+03 | 2.29E+07 |
| CCCCCCOC(=O)CCCCCCCCCCN(CCCCCCCCCCC(=O)OCCCCCC)CCOC(=O)NCCN(C)C [Lipid 136, hexyl 10-(11-(hexyloxy)-11-oxoundecyl)-2-methyl-6-oxo-7-oxa-2,5,10-triazahenicosan-21-oate] | 2.15E+03 | 8% | 95% | 20% | 16.11 mV | 0.146 | 143.7 | 1.93E+02 | 6.14E+03 |
| CCCCCCCCCCCOC(=O)CCCCCN(CCCCCC(=O)OCCCCCCCCCCC)CCOC(=O)NCCN(C)C [Lipid 154, undecyl 2-methyl-6-oxo-10-(6-oxo-6-(undecyloxy)hexyl)-7-oxa-2,5,10-triazahexadecan-16-oate] | 2.59E+05 | 101% | 90% | 106% | 25.23 mV | 0.1144 | 75.25 | 2.36E+03 | 1.01E+05 |
| CCCCCCCC/C=C\CCCCCCCCN(CCCCCCCCOC(=O)C(CCCCCC)CCCCCCCC)CCOC(=O)NCCN1CCOCC1 (stereo not shown) [Lipid 215] | 5.62E+04 | 86% | 96% | 85% | −3.755 mV | 0.05226 | 62.22 | 7.31E+03 | 1.61E+07 |
| CCCCC/C=C\CCOC(=O)CCCCCN(CCCCCCCCOC(=O)C(CCCCCC)CCCCCCCC)CCOC(=O)NCCN(C)C (stereo not shown) [Lipid 189] | 9.85E+04 | 1% | 95% | 89% | 18.88 mV | 0.4058 | 84.04 | 2.71E+02 | 1.79E+06 |
| CCCCCCCC/C=C\CCCCCCCCN(CCCCCCCCOC(=O)C(CCCCCC)CCCCCCCC)CCOC(=O)NCCN1CCCCC1 (stereo not shown) [Lipid 219] | 7.09E+05 | 80% | 93% | 58% | 0.7668 mV | 0.1125 | 76.57 | 3.53E+04 | 1.34E+08 |
| CCCCCCCCCC(=O)OCCCCCCCN(CCCCCCCOC(=O)CCCCCCCCC)CCOC(=O)NCc1ncc[nH]1 [Lipid 176] | 6.28E+03 | 93% |  | 88% |  |  |  | 4.83E+04 | 1.31E+07 |
| CCCCCCOC(=O)CCCCCCCCCCN(CCCCCCCCCCC(=O)OCCCCCC)CCOC(=O)NCCN1CCOCC1 [Lipid 139, dihexyl 11,11′-((2-(((2-morpholinoethyl)carbamoyl)oxy)ethyl)azanediyl)diundecanoate] | 4.85E+01 | 8% |  | 16% |  |  |  | 1.64E+02 | 3.48E+06 |
| CCCCC/C=C\CCOC(=O)CCCCCN(CCCCCCCCOC(=O)C(CCCCCC)CCCCCCCC)CCOC(=O)NCCN(C)C (stereo not shown) [Lipid 184] | 9.87E+04 | 88% |  | 91% |  |  |  | 1.93E+03 | 5.28E+07 |
| CCCCCCCCCCCOC(=O)CCCCCN(CCCCCC(=O)OCCCCCCCCCCC)CCOC(=O)NCCN1CCN(C)CC1 [Lipid 156, diundecyl 6,6′-((2-(((2-(4-methylpiperazin-1-yl)ethyl)carbamoyl)oxy)ethyl)azanediyl)dihexanoate] | 2.86E+04 | 93% |  | 84% |  |  |  | 1.67E+03 | 4.92E+04 |
| CCCCCCCCCCCOC(=O)CCCCCN(CCCCCCCC(=O)OC(CCCCCCCC)CCCCCCCC)CCOC(=O)NCCN1CCN(C)CC1 [Lipid 160, heptadecan-9-yl 8-((2-(((2-(4-methylpiperazin-1-yl)ethyl)carbamoyl)oxy)ethyl)(6-oxo-6-(undecyloxy)hexyl)amino)octanoate] | 6.38E+05 | 93% |  | 94% |  |  |  | 1.94E+04 | 4.44E+05 |
| CCCCCCCOC(=O)CCCCCCCCCN(CCCCCCCCCC(=O)OCCCCCCC)CCOC(=O)NCCN1CCCCC1 [Lipid 118, diheptyl 10,10′-((2-(((2-(piperidin-1-yl)ethyl)carbamoyl)oxy)ethyl)azanediyl)bis(decanoate)] | 1.43E+03 | 8% |  | 19% |  |  |  | 1.42E+04 | 7.90E+06 |
| CCCCC/C=C\C/C=C\CCCCCCCCN(CCCCCC(=O)OCC/C=C\CCCCC)CCOC(=O)NCc1ccncc1 [Lipid 99, (Z)-non-3-en-1-yl 6-(((9Z,12Z)-octadeca-9,12-dien-1-yl)(2-(((pyridin-4-ylmethyl)carbamoyl)oxy)ethyl)amino)hexanoate] | 1.13E+04 | 137% |  | 78% |  |  |  | 1.01E+04 | 5.53E+07 |
| CCCCC/C=C\C/C=C\CCCCCCCCN(CCCCCC(=O)OCC(CCCCCCCC)CCCCCCCCCC)CCOC(=O)NCCCN(C)C (stereo not shown) [Lipid 81, 2-octyldodecyl 2-methyl-11-((9Z,12Z)-octadeca-9,12-dien-1-yl)-7-oxo-8-oxa-2,6,11-triazaheptadecan-17-oate] | 6.71E+04 | 107% |  | 121% |  |  |  | 1.56E+03 | 1.15E+04 |
